What was measured:
HL-60 [1] = assay: Compound was tested in vitro for its ability to induce superoxide generation in HL-60 cells at concentration 10e-6 M; type: functional, Homo sapiens
HL-60 [2] = assay: Compound was tested in vitro for percent EBV0EA-inducing activity in […] cells at concentration 10e-5 M; type: functional, cell-based, Homo sapiens
HL-60 [3] = assay: (§1) Compound was tested in vitro for percent EBV0EA-inducing activity in […] cells at concentration 10e-6 M; type: functional, cell-based, Homo sapiens
HL-60 [4] = assay: Compound was tested in vitro for its ability to induce superoxide generation in HL-60 cells at concentration 10e-7 M; type: functional, Homo sapiens
HL-60 [5] = assay: as §1; type: functional, Homo sapiens
HL-60 [6] = assay: Compound was tested in vitro for its ability to induce superoxide generation in HL-60 cells at concentration 10e-8 M; type: functional, Homo sapiens
HL-60 [7] = assay: Compound was tested in vitro for its ability to induce superoxide generation in HL-60 cells at concentration 10e-9 M; type: functional, Homo sapiens
HL-60 [8] = assay: Compound was tested in vitro for percent EBV0EA-inducing activity in […] cells at concentration 10e-9 M; type: functional, Homo sapiens
HL-60 [9] = assay: Compound was tested in vitro for percent EBV0EA-inducing activity in […] cells at concentration 10e-8 M; type: functional, Homo sapiens
HL-60 [10] = assay: Compound was tested in vitro for percent EBV0EA-inducing activity in […] cells at concentration 10e-7 M; type: functional, Homo sapiens
[11] = target: T1, Protein kinase C gamma type (Homo sapiens, UniProt P05129); assay: Displacement of 3[H]PDBu from Protein kinase C gamma C1b domain
[12] = target: T2, Protein kinase C beta type (Homo sapiens, UniProt P05771); assay: Displacement of 3[H]PDBu from Protein kinase C beta C1b domain
[13] = target: T3, Protein kinase C delta type (Homo sapiens, UniProt Q05655); assay: Displacement of 3[H]PDBu from Protein kinase C delta C1a domain
[14] = target: T4, Protein kinase C eta type (Homo sapiens, UniProt P24723); assay: Displacement of 3[H]PDBu from Protein kinase C eta C1a domain
[15] = target: T5, Protein kinase C epsilon type (Homo sapiens, UniProt Q02156); assay: Displacement of 3[H]PDBu from Protein kinase C epsilon C1b domain
T5 sequence (Q02156 whole entry): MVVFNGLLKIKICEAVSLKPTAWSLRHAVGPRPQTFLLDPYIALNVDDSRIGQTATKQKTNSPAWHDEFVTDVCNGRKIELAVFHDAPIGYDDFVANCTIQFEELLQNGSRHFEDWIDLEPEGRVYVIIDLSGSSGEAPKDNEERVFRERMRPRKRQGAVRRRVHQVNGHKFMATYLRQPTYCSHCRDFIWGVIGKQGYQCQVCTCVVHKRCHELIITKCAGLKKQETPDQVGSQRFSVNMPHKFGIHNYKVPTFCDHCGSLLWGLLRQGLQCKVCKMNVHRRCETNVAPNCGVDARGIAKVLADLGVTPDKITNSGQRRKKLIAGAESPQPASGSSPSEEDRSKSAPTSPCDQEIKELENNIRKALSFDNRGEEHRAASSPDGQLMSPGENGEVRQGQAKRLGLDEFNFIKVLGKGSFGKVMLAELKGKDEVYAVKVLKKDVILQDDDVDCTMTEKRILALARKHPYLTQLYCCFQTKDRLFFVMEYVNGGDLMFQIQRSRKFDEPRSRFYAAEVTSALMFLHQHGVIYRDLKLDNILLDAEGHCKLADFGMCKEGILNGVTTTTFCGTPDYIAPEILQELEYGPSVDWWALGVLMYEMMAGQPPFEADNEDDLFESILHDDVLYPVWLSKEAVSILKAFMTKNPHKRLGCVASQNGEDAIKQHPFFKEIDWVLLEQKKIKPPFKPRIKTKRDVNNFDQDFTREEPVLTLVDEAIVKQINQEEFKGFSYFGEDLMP

[16] = target: T1, Protein kinase C gamma type; assay: Displacement of 3[H]PDBu from Protein kinase C gamma C1a domain
[17] = target: Protein kinase C theta type (Homo sapiens, UniProt Q04759); assay: Displacement of 3[H]PDBu from Protein kinase C theta C1b domain
[18] = target: T6, Protein kinase C alpha type (Homo sapiens, UniProt P17252); assay: Displacement of 3[H]PDBu from Protein kinase C alpha C1a domain
[19] = target: T4, Protein kinase C eta type; assay: Displacement of 3[H]PDBu from Protein kinase C eta C1b domain
[20] = target: T2, Protein kinase C beta type; assay: Displacement of 3[H]PDBu from Protein kinase C beta C1a domain
[21] = target: T6, Protein kinase C alpha type; assay: Displacement of 3[H]PDBu from Protein kinase C alpha C1b domain
[22] = target: T3, Protein kinase C delta type; assay: Displacement of 3[H]PDBu from Protein kinase C delta C1b domain
[23] = target: T5, Protein kinase C epsilon type; assay: Displacement of 3[H]PDBu from Protein kinase C epsilon C1a domain

T2 sequence (P05771 whole entry, the tested form may be a part): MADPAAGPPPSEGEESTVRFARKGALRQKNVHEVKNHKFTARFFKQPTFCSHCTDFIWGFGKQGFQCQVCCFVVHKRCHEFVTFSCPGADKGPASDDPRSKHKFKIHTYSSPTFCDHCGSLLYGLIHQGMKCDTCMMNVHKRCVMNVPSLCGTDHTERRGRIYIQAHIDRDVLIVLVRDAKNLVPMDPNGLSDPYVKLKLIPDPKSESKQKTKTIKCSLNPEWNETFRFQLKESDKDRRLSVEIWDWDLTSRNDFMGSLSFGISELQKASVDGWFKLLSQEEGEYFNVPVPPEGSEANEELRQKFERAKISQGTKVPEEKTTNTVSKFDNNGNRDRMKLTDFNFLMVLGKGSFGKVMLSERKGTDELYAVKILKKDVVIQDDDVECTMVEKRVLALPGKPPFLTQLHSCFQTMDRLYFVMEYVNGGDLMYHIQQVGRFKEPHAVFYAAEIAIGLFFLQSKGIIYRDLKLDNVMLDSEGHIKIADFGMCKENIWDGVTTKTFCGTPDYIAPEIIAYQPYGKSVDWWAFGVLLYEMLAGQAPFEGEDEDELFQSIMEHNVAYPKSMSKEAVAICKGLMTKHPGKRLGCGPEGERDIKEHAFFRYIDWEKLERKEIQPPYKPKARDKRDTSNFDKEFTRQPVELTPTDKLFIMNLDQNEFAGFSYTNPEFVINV
T4 sequence (P24723 whole entry, the tested form may be a part): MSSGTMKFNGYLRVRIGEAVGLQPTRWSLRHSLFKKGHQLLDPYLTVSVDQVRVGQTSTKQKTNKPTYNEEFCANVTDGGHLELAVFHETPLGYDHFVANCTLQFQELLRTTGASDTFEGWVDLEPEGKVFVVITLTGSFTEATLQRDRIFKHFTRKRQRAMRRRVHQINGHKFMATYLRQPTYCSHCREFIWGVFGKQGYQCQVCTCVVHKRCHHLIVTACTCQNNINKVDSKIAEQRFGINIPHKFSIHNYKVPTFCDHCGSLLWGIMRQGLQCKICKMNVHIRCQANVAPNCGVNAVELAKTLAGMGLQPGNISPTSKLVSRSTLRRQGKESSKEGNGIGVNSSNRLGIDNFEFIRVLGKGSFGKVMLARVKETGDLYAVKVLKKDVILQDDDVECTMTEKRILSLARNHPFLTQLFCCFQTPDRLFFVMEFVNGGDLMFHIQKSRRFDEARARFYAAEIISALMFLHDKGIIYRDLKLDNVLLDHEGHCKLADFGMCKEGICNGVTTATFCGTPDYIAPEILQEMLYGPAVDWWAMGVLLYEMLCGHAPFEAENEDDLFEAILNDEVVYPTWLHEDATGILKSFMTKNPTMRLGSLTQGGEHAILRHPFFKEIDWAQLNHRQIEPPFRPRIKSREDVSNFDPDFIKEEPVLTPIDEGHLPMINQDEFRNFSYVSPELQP
T3 sequence (Q05655 whole entry, the tested form may be a part): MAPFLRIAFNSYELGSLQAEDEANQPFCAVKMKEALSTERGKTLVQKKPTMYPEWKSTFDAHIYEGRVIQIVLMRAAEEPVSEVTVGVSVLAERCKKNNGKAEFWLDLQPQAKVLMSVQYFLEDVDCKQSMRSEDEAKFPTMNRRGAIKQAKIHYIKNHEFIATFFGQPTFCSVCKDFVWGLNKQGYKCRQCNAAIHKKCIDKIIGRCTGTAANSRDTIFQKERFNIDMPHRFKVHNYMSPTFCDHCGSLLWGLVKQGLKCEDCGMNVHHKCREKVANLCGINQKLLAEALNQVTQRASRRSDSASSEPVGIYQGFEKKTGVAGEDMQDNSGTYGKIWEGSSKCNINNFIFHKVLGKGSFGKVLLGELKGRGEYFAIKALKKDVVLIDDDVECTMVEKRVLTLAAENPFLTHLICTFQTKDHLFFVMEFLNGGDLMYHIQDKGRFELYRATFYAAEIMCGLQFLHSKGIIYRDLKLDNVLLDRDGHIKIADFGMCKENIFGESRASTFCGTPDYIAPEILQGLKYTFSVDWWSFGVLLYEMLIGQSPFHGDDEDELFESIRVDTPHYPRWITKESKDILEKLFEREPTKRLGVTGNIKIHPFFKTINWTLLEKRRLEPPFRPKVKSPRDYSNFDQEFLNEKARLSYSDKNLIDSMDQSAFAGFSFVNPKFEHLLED
Sequence of Protein kinase C theta type (Q04759 whole entry, the tested form may be a part): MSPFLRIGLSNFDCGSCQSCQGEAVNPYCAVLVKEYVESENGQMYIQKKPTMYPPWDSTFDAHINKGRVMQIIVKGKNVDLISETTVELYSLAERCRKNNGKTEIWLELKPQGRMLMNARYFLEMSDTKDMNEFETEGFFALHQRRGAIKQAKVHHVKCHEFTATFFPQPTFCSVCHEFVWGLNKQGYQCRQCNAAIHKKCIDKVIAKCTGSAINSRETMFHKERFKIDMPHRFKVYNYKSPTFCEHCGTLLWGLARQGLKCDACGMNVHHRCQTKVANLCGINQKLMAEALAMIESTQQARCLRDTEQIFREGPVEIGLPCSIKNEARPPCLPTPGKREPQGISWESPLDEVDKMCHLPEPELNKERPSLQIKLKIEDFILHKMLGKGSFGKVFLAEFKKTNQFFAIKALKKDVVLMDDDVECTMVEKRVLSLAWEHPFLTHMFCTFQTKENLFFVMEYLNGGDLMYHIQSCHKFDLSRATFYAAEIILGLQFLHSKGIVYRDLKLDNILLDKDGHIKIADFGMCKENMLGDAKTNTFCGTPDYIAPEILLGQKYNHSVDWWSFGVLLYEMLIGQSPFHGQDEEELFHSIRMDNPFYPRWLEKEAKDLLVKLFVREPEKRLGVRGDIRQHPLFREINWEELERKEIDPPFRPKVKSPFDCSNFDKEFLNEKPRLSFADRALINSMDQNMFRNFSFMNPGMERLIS

SMILES	Activity (HL-60 [1])	Activity (HL-60 [4])	Activity (HL-60 [5]) [%]	Activity (HL-60 [6])	Activity (HL-60 [7])	Activity (HL-60 [8]) [%]	Activity (HL-60 [9]) [%]	Activity (HL-60 [10]) [%]	other results
CCCC(=O)O[C@@H]1[C@@H](C)[C@]2(O)[C@@H]3C=C(C)C(=O)[C@@H]3CC(CO)=C[C@H]2[C@@H]2C(C)(C)[C@]12OC(=O)CCC	0.05 nM min-1 (10e-6*cells)-1								Activity (HL-60 [2]): 17.9%; Activity (HL-60 [3]): 2.7%
CCCC(=O)O[C@@H]1[C@@H](C)[C@@]2(O)[C@@H](C=C(CO)C[C@]3(O)C(=O)C(C)=C[C@@H]23)[C@@H]2C(C)(C)[C@]12OC(=O)CCC	3.32 nM min-1 (10e-6*cells)-1	3.11 nM min-1 (10e-6*cells)-1	29.9	0.11 nM min-1 (10e-6*cells)-1	0 nM min-1 (10e-6*cells)-1	3.6	10.8	33.1	
CCCC(=O)O[C@@H]1[C@@H](C)[C@]2(O)[C@@H]3C=C(C)C(=O)[C@H]3CC(CO)=C[C@H]2[C@@H]2C(C)(C)[C@]12OC(=O)CCC	3.14 nM min-1 (10e-6*cells)-1	3.16 nM min-1 (10e-6*cells)-1	25.6	0.08 nM min-1 (10e-6*cells)-1	0.11 nM min-1 (10e-6*cells)-1	1.2	7	31.1	Ki [11]: 1.84 nM; Ki [12]: 2.23 nM; Ki [13]: 70.2 nM; Ki [14]: 14.9 nM; Ki [15]: 0.58 nM; Ki [16]: 5.23 nM; Ki [17]: 0.73 nM; Ki [18]: 4.05 nM; Ki [19]: 0.35 nM; Ki [20]: 2.78 nM; Ki [21]: 13.9 nM; Ki [22]: 0.55 nM; Ki [23]: 4.49 nM

Source: ChEMBL document CHEMBL1134710, “The C4 hydroxyl group of phorbol esters is not necessary for protein kinase C binding” (Bioorg Med Chem Lett, 2001)
